This assay has as its target T1, α4β7 (adhesion of RPMI cells to CS-1) (Homo sapiens, UniProt P13612+P26010).
T1 construct: endogenous in cells
T1 sequence (P13612 34-1032): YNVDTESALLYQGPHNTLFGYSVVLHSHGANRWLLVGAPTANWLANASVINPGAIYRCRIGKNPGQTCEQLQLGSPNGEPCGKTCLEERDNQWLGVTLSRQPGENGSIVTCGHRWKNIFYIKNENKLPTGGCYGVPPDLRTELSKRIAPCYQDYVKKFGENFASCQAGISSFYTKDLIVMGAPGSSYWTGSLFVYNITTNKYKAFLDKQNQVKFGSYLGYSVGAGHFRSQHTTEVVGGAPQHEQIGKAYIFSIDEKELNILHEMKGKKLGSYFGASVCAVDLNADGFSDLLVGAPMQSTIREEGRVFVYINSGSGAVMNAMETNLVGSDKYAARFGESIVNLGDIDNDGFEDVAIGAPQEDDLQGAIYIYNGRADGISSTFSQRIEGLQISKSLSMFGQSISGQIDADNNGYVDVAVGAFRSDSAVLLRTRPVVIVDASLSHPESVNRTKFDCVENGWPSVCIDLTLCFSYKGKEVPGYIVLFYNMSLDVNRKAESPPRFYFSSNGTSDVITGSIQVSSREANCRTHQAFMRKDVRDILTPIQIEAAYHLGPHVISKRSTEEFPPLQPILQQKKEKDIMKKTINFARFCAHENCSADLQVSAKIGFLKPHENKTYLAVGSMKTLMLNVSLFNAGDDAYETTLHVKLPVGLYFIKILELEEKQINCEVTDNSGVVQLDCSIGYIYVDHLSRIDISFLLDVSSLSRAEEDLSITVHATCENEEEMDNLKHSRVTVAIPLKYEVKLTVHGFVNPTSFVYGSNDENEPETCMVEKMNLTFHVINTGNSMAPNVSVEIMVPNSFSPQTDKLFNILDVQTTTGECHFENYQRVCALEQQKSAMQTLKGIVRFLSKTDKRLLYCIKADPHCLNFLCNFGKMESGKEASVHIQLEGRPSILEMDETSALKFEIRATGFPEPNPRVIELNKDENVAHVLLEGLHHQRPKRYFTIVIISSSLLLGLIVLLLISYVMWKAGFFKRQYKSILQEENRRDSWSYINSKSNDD
T1 sequence (P26010 20-798): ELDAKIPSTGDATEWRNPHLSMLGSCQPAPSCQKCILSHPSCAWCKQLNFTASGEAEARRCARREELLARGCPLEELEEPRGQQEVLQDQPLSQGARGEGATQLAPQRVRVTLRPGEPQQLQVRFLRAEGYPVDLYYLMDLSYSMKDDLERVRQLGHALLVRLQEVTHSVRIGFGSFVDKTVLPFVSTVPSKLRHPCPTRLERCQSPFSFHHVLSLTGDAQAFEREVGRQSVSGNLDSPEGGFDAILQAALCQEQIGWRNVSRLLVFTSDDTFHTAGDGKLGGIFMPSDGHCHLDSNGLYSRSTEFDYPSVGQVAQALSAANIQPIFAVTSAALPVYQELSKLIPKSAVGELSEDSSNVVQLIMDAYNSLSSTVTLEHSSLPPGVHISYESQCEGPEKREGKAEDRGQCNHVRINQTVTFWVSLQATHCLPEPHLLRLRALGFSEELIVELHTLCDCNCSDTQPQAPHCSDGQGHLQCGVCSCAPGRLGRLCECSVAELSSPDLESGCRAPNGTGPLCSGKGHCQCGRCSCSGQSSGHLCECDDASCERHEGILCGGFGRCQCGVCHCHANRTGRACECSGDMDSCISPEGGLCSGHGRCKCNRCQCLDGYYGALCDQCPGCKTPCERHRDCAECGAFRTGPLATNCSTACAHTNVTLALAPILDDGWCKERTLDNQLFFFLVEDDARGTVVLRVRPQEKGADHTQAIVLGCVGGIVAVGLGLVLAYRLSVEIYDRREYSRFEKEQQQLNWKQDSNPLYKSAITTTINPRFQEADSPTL
The experiment in a line: RPMI-CS-1 cell adhesion assay. Type of assay: cell-based. The conditions noted are these: adhesion of RPMI B-cell line (expresses α4β7) to CS-1 peptide coated microwells; read-out: RPMI-CS-1 IC50 value range.
As to `CC(C)(C)NS(=O)(=O)c1ccccc1-c1ccc(C[C@H](NC(=O)c2c(Cl)cccc2Cl)C(=O)O)cc1` [Example 16, N-(2,6-Dichlorobenzoyl)-4-[2-[N-(tert-butyl)sulfamoyl]phenyl]-L-phenylalanine], the IC50 was less than 300 nM.
Take `COc1cc(OCCN(C)C)cc(OC)c1-c1ccc(C[C@H](NC(=O)c2c(Cl)cccc2Cl)C(=O)O)cc1` [Example 223, N-(2,6-Dichlorobenzoyl)-4-[2,6-dimethoxy-4-[2-(N,N-dimethylamino)ethoxy]phenyl]-L-phenylalanine]: the half-maximal inhibitory concentration (IC50) is less than 300 nM.
The same measure for `O=C(N[C@@H](Cc1ccc(-c2ccccc2CO)cc1)C(=O)O)c1c(Cl)cccc1Cl` [Example 50, N-(2,6-Dichlorobenzoyl)-4-[2-(hydroxymethyl)phenyl]-L-phenylalanine]: less than 300 nM.
For `COc1cc(OCc2ccsc2)cc(OC)c1-c1ccc(C[C@H](NC(=O)c2c(Cl)cccc2Cl)C(=O)O)cc1` [Example 220, N-(2,6-Dichlorobenzoyl)-4-[2,6-dimethoxy-4-(3-thienylmethoxy)phenyl]-L-phenylalanine] the value was less than 300 nM; for `COc1cccc(OC)c1-c1ccc(C[C@H](NC(=O)c2c(Cl)cccc2Cl)C(=O)OC2CCCCC2)cc1` [Example 276, N-(2,6-Dichlorobenzoyl)-4-(2,6-dimethoxyphenyl)-L-phenylalanine cyclohexyl ester], greater than 5000 nM.
The same measure for `COc1cc(Cl)cc(OC)c1-c1ccc(C[C@H](NC(=O)c2c(Cl)cccc2Cl)C(=O)O)cc1` [Example 12, N-(2,6-Dichlorobenzoyl)-4-(4-chloro-2,6-dimethoxyphenyl)-L-phenylalanine]: less than 300 nM.
With `COc1ccccc1-c1ccc(C[C@@H](NC(=O)c2cccc(NS(=O)(=O)C(F)(F)F)c2Cl)C(=O)O)cc1` [Example 186, N-[2-Chloro-3-[(trifluoromethanesulfonyl)amino]-benzoyl]-4-(2-methoxyphenyl)-D-phenylalanine], the concentration for half-maximal inhibition (IC50) fell in the range of 300 to 1000 nM.
For `O=C(N[C@@H](Cc1ccc(-c2ccccc2OCc2cccnc2)cc1)C(=O)O)c1c(Cl)cccc1Cl` [Example 40], the half-inhibitory concentration (IC50) fell in the range of 300 to 1000 nM.
The same measure for `CCOc1cccc(OCC)c1-c1ccc(C[C@H](NC(=O)c2c(Cl)cccc2Cl)C(=O)O)cc1` [Example 13, N-(2,6-Dichlorobenzoyl)-4-(2,6-diethoxyphenyl)-L-phenylalanine]: less than 300 nM.
For `O=C(O)C=Cc1ccccc1-c1ccc(C[C@H](NC(=O)c2c(Cl)cccc2Cl)C(=O)O)cc1` (mixture of isomers) [Example 49, N-(2,6-Dichlorobenzoyl)-4-[2-(2-carboxyethenyl)phenyl]-L-phenylalanine] the value was 300 to 1000 nM.
For `COc1c(F)cc(F)c(OC)c1-c1ccc(C[C@H](NC(=O)c2c(Cl)cccc2Cl)C(=O)O)cc1` [Example 153B, N-(2,6-dichlorobenzoyl)-4-(2,6-dimethoxy-3,5-difluorophenyl)-L-phenylalanine] the value was less than 300 nM; for `O=C(N[C@@H](Cc1ccc(-c2ccsc2CO)cc1)C(=O)O)c1c(Cl)cccc1Cl` [Example 218, N-(2,6-Dichlorobenzoyl)-4-(2-hydroxymethyl-3-thienyl)-L-phenylalanine], 1000 to 5000 nM; for `COc1cc(O)cc(OC)c1-c1ccc(C[C@H](NC(=O)c2c(Cl)cccc2Cl)C(=O)O)cc1` [Example 346, N-(2,6-Dichlorobenzoyl)-4-(2,6-dimethoxy-4-hydroxyphenyl)-L-phenylalanine], less than 300 nM.
With `COc1cc(CN2CCN(C(C)=O)CC2)cc(OC)c1-c1ccc(C[C@H](NC(=O)c2c(Cl)cccc2Cl)C(=O)O)cc1` [Example 251], the IC50 is less than 300 nM.
The same measure for `COc1cc(CNCCO)cc(OC)c1-c1ccc(C[C@H](NC(=O)c2c(Cl)cccc2Cl)C(=O)O)cc1` [Example 246]: less than 300 nM; for `CCOc1cccc(OC)c1-c1ccc(C[C@H](NC(=O)c2c(Cl)cccc2Cl)C(=O)O)cc1` [Example 14, N-(2,6-Dichlorobenzoyl)-4-(2-ethoxy-6-methoxyphenyl)-L-phenylalanine]: less than 300 nM.
The same measure for `COc1cccc(OC)c1-c1ccc(C[C@H](NC(=O)c2c(Cl)cccc2Cl)C(=O)OC(C)C)cc1` [Example 275, N-(2,6-Dichlorobenzoyl)-4-(2,6-dimethoxyphenyl)-L-phenylalanine i-propyl ester]: greater than 5000 nM; for `COc1cccc(-c2ccc(C[C@H](NC(=O)c3c(Cl)cccc3Cl)C(=O)O)cc2)c1` [Example 119]: greater than 5000 nM; for `COC(=O)[C@H](Cc1ccc(-c2ccccc2CNc2cccnc2)cc1)NC(=O)c1c(Cl)cccc1Cl` [Example 116]: 1000 to 5000 nM.
The same measure for `COC(=O)[C@H](Cc1ccc(-c2c(OC)cccc2OC)cc1)NC(=O)c1c(Cl)cccc1Cl` [Example 7A, N-(2,6-Dichlorobenzoyl)-4-(2,6-dimethoxyphenyl)-L-phenylalanine methyl ester]: less than 300 nM.
Consider `O=C(N[C@@H](Cc1ccc(-c2ccccc2OCc2ccncc2)cc1)C(=O)O)c1c(Cl)cccc1Cl` [Example 39], for which the half-inhibitory concentration (IC50) fell in the range of 300 to 1000 nM.
The same measure for `O=C(NCCCO)c1ccccc1-c1ccc(C[C@H](NC(=O)c2c(Cl)cccc2Cl)C(=O)O)cc1` [Example 57, N-(2,6-Dichlorobenzoyl)-4-[2-[N-(3-hydroxypropyl)carbamoyl]phenyl]-L-phenylalanine]: 1000 to 5000 nM.
For `COc1cc(OCCO)cc(OC)c1-c1ccc(C[C@H](NC(=O)c2c(Cl)cccc2Cl)C(=O)O)cc1` [Example 222, N-(2,6-Dichlorobenzoyl)-4-[2,6-dimethoxy-4-(2-hydroxyethoxy)phenyl]-L-phenylalanine] the value was less than 300 nM; for `CCOc1cccc(-c2ccc(C[C@H](NC(=O)c3c(Cl)cccc3Cl)C(=O)O)cc2)c1` [Example 120], greater than 5000 nM.
For `COc1ccccc1-c1ccc(C[C@H](NC(=O)c2ccc([N+](=O)[O-])cc2)C(=O)O)cc1` [Example 101], the IC50 is greater than 5000 nM.
The same measure for `COc1ccccc1-c1ccc(C[C@H](NC(=O)c2ccc(NC(=S)NCc3ccccc3)cc2Cl)C(=O)O)cc1` [Example 194, N-[4-(3-Benzylthioureido)-2-chlorobenzoyl]-4-(2-methoxyphenyl)-L-phenylalanine]: 1000 to 5000 nM.
The same measure for `O=C(O)c1ccc(C(=O)N[C@@H](Cc2ccc(-c3ccccc3O)cc2)C(=O)O)cc1` [Example 81]: greater than 5000 nM; for `CCCc1ccc(C(=O)N[C@@H](Cc2ccc(-c3ccccc3OC)cc2)C(=O)O)cc1` [Example 97]: 300 to 1000 nM; for `COc1cc(OCc2ccccn2)cc(OC)c1-c1ccc(C[C@H](NC(=O)c2c(Cl)cccc2Cl)C(=O)O)cc1` [Example 349]: less than 300 nM.
For `COc1ccc(Br)c(OC)c1-c1ccc(C[C@H](NC(=O)c2c(Cl)cccc2Cl)C(=O)O)cc1` [Example 322, N-(2,6-Dichlorobenzoyl)-4-(2,6-dimethoxy-3-bromophenyl)-L-phenylalanine] the value was less than 300 nM.
`COc1cccc(OC)c1-c1ccc(C[C@H](NC(=O)c2ccc(NS(=O)(=O)C(F)(F)F)cc2Cl)C(=O)O)cc1` [Example 183, N-[2-Chloro-4-[(trifluoromethanesulfonyl)amino]-benzoyl]-4-(2,6-dimethoxyphenyl)-L-phenylalanine]: the 50% inhibitory concentration (IC50) was less than 300 nM.

As a reminder, the IC50 is the concentration that inhibits the measured activity by half.

The values are drawn from patent US6855843B2, “Inhibitors of α4 mediated cell adhesion” (Tanabe Seiyaku Co., Ltd., priority 1998, dated 2005).
